Assay results published in patent US7990502B2, “Liquid-crystal display device” (Fujifilm Corporation, priority 2007, dated 2011).

Assay: log P value (octanol-water partition coefficient) of the compound capable of mending the humidity dependence
Assay type: physicochemical
Conditions: octanol-water partition coefficient of the humidity-dependence mending compound used in the second retardation film
Description: Log P of the compound capable of mending the humidity dependence for use in the invention is preferably from 3 to 10, more preferably from 3 to 7. Using the compound capable of mending the humidity dependence having log P that falls within the above range may reduce the humidity dependence of Re not causing a face condition trouble such as bleeding out, etc.
The log P value means an octanol-water partition coefficient, and it may be determined according to the flask shaking method described in JIS (Japanese Industrial Standards) Z7260-107 (2000). In place of determining it through actual measurement, the octanol-water partition coefficient (log P value) may be estimated according to a computational chemical method or an experimental method. As the computational method, preferably employed are a Crippen's fragmentation method (J. Chem. Inf. Comput. Sci., 27, 21 (1987)), a Viswanadhan's fragmentation method (J. Chem. Inf. Comput. Sci., 29, 163 (1989)), a Broto's fragmentation method (Eur. J. Med. Chem.-Chim. Theor., 19, 71 (1984)). Particularly, the Crippen's fragmentation method (J. Chem. Inf. Comput. Sci., 27, 21 (1987)) is preferably employed. In case where the log P value of a certain compound differs depending on the measurement method or the computational method employed, the compound is preferably judged according to a Crippen's fragmentation method as to whether or not it could fall within the preferred range.

logP | Structure (SMILES)
3.7 | O=C(Oc1ccccc1)[C@H]1CC[C@H](C(=O)Oc2ccccc2)CC1 [Compound A-1]
5.8 | CCc1ccc(OC(=O)[C@H]2CC[C@H](C(=O)Oc3ccc(CC)cc3)CC2)cc1 [Compound A-3]
5.7 | Cc1ccc(OC(=O)[C@H]2CC[C@H](C(=O)Oc3ccc(C)cc3C)CC2)c(C)c1 [Compound A-6]
11 | CCCCCCCc1ccc(OC(=O)[C@H]2CC[C@H](C(=O)Oc3ccc(CCCCCCC)cc3)CC2)cc1 [D]
